For one data set, the target named is T1, VDR (Homo sapiens, UniProt P11473).
T1 construct: -CMV-VDR-LBD coding for the hinge region and; expressed in transfected cells; host or cells: HEK293T
T1 sequence (P11473 127-423 limits assumed): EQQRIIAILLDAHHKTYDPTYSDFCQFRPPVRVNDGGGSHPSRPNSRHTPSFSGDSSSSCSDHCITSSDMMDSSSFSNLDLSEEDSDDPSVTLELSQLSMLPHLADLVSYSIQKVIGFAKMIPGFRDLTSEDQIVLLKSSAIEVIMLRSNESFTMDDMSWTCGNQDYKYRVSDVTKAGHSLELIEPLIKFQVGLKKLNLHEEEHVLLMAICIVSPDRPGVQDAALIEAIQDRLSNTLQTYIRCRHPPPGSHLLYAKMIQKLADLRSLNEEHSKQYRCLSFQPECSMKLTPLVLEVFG
As to the kind of experiment: Gal4‐VDR hybrid reporter gene assay, agonist mode. The data set is classed as cell-based. The following applies: for EC50: HEK293T cells, mean±S.E.M., n≥3. The method, then: FIGURE 2 Development and characterization of the light‐activated vitamin D mimetic photo‐vitD (10). (a) Structure activity relationship of photo‐switchable VDR agonists 4–10. Compounds were tested in a cellular Gal4‐VDR hybrid reporter gene assay. Relative activation is normalized to the effect of 2 (1 µM) set as 100% activation. The (Z)‐states of the compounds were maintained with a Cell‐Disco [24] (370 nm). […] Data in agonist (EC50) and antagonist mode (IC50; vs. 0.3 µM 2) are shown for (E)‐ and (Z)‐10. The corresponding dose‐response curves are shown in (d). (b) Predicted binding mode of (E)‐7 (green) in the VDR ligand binding site (pdb ID 4g1d). […] (c) Predicted binding mode of (Z)‐10 (yellow) in the VDR ligand binding site. The altered regiochemistry conveys strong preference for the light‐induced (Z)‐configuration and the extended naphthoic acid motif enables a strong ionic contact to R302. (d) Dose‐response curves of (E)‐ (dark) and (Z)‐10 (370 nm) in the Gal4‐VDR reporter gene assay in agonist (top) and antagonist mode (bottom, with 0.3 µM calcitriol (2)). (Z)‐10 activated VDR; (E)‐10 and (Z)‐10 antagonized VDR activation by 0.3 µM calcitriol (2). (Z)‐10 was maintained with a Cell‐Disco [24] (370 nm). Data are the mean±S.E.M. relative VDR act. vs. 0.3 µM calcitriol (2), n≥3. (e) Activity profile of 10 (1 µM) on nuclear receptors showing exclusive VDR activation by the light‐activated state. 10 was tested in a panel of uniform Gal4‐NR hybrid reporter gene assays. (Z)‐10 was maintained with a Cell‐Disco [24] (370 nm). Data are the mean±SD, n = 3. (f) Representative UV/Vis spectra of 10 as (E)‐ (dark) and (Z)‐states (PSS 365 nm), and after switching back to (E) with 465 nm. (g) (E)/(Z)‐ratios of 10 in the dark‐adapted state, after illumination at 365 nm for 5 min and after switching back from mostly‐(Z) with 465 nm for 5 min. (h) 10 could be rapidly and reversibly switched between the (E)‐ and (Z)‐states over multiple cycles by alternating irradiation at 365 and 465 nm. Absorbance was measured at 351 nm with a 25 µM solution in DMSO, one cycle is 30 sec. […] 10 was pre‐illuminated at 365 nm for 30 min and then kept in the dark. (E)/(Z) ratios were measured by NMR. (j) Binding mode prediction of (E)‐ and (Z)‐10 to the VDR‐antagonist complex 2zxm (residues numbered according to [21]). (Z)‐10 (yellow) forms an agonist‐like binding mode with several polar interactions at both ends of the pocket. (E)‐10 (cyan) is also anchored at the distal end of the pocket by an H‐bond network with R302 and the D176 backbone but due to the (E)‐configuration, the β‐naphthoic acid residue protrudes deeper and the pentan‐3‐ol motif rotates away from H333/H423. Therefore, (E)‐10 lacks stabilizing/activating contacts with the H333/H423 region rationalizing its antagonist properties.
Gal4-hybrid reporter gene assays. Reporter gene assays were performed in HEK293T cells (German Collection of Microorganisms and Cell Culture GmbH, DSMZ) as reported previously using Gal4 -NR LBD fusion receptor plasmids each coding for the hinge region and LBD of the canonical isoform of the respective human nuclear receptor.[7,8] pFR-Luc (Stratagene, La Jolla, CA, USA) served as a reporter plasmid and pRL-SV40 (Promega, Madison, WI, USA) was used for normalization of transfection efficiency and test compound toxicity. Cells were cultured in Dulbecco’s modified Eagle’s medium (DMEM), high glucose supplemented with 10% fetal calf serum (FCS), sodium pyruvate (1 mM), penicillin (100 U/mL), and streptomycin (100 μg/mL) at 37 °C and 5% CO2, and seeded in 96-well plates (3 × 10^4 cells/well). After 24 h, the medium was changed to Opti -MEM without supplements, and cells were transiently transfected using Lipofectamine LTX reagent (Invitrogen, Carlsbad, CA, USA) according to the manufacturer’s protocol. Five hours after transfection, cells were incubated with the test compounds […]
A general note: A reporter such as luciferase makes a cellular process visible.

The test system of another data set is ASC52telo hTERT cells. As to the kind of experiment: in vitro osteogenesis model (ALP activity, von Kossa staining). The class given is cell-based, human. The following applies: osteogenic differentiation over 15 days, dark or Cell‐Disco (370 nm, 100 ms/10 s). Here is the method: FIGURE 3 Optical control of VDR activity with photo‐vitD (10). (a) 10 (1 µM) enabled light‐dependent in‐cell activation of VDR in a fluorescent (mCherry) reporter gene assay. Gray curve: dark; blue curve: Cell‐Disco (370 nm; 100 ms/10 s); yellow curve: dark for 10 h, then Cell‐Disco (370 nm); magenta curve: Cell‐Disco (370 nm) for 10 h, then Cell‐Disco (450 nm). Lines are the mean, shadows are S.E.M.; n = 6. (b–d) Phenotypic model of bone formation using human […] (ASC52telo hTERT cells) and cyclic treatment with dexamethasone, 2‐phospho‐L‐ascorbic acid, and glycerol 2‐phosphate over 15 days to induce osteogenesis. Alkaline phosphatase (ALP) activity (b) and von Kossa staining of hydroxyapatite (c; representative photomicrographs in d) were used as markers of osteogenesis. Experiments were performed in the dark (gray bars) and using a Cell‐Disco (370 nm, 100 ms/10 s; blue bars). Data are the mean±SD, n = 6. * p<0.05, ** p<0.01, *** p<0.001 (vs. respective dark or illuminated DMSO (diff.) ctrl or as indicated; ANOVA with Dunnett's multiple comparisons test).
Photo‐vitD (10) thus appeared suitable for application as tool for VDR control in complex phenotypic settings. […] Photo‐vitD (10) thus enabled bidirectional optical control of osteogenesis in cellulo based on its ability to switch between agonist and antagonist states. […]
experiment was repeated independently three times. CellDiscos[9] were used for pulsed irradiation at 370 nm or 450 nm to switch 10 between photostationary states. The live cells were assayed for fluorescence reporter intensity at multiple time points over 36 h. Fluorescence intensity (FI) was measured (λex 585/10 nm, λem 610/10 nm) in bottom reading mode with a Tecan Spark Cyto (Tecan Deutschland GmbH).
Fold FI was obtained by dividing the mean F I of a test sample by the mean FI of the untreated control of the respective measurement (time point).
In vitro osteogenesis model. […] Absorbance was measured at 410 nm for 60 min every 5 min with an increase in absorbance reflecting phosphatase activity (nmol/min). For quantification via linear […]

Data set [1] in a line: photophysical characterization (photo‐switching, thermal relaxation). The class given is physicochemical. The following applies: room temperature (∼21°C); pre‐illuminated at 365 nm for 30 min, then dark; (E)/(Z) ratios by NMR. The method, then:
FIGURE 2 Development and characterization of the light‐activated vitamin D mimetic photo‐vitD (10). (a) Structure activity relationship of photo‐switchable VDR agonists 4–10. Compounds were tested in a cellular Gal4‐VDR hybrid reporter gene assay. Relative activation is normalized to the effect of 2 (1 µM) set as 100% activation. The (Z)‐states of the compounds were maintained with a Cell‐Disco [24] (370 nm). […] Data in agonist (EC50) and antagonist mode (IC50; vs. 0.3 µM 2) are shown for (E)‐ and (Z)‐10. The corresponding dose‐response curves are shown in (d). (b) Predicted binding mode of (E)‐7 (green) in the VDR ligand binding site (pdb ID 4g1d). […] (c) Predicted binding mode of (Z)‐10 (yellow) in the VDR ligand binding site. The altered regiochemistry conveys strong preference for the light‐induced (Z)‐configuration and the extended naphthoic acid motif enables a strong ionic contact to R302. (d) Dose‐response curves of (E)‐ (dark) and (Z)‐10 (370 nm) in the Gal4‐VDR reporter gene assay in agonist (top) and antagonist mode (bottom, with 0.3 µM calcitriol (2)). (Z)‐10 activated VDR; (E)‐10 and (Z)‐10 antagonized VDR activation by 0.3 µM calcitriol (2). (Z)‐10 was maintained with a Cell‐Disco [24] (370 nm). […] Absorbance was measured at 351 nm with a 25 µM solution in DMSO, one cycle is 30 sec. […] (E)/(Z) ratios were measured by NMR. […]

Setting [2] is: (Z)‐state maintained with Cell‐Disco (370 nm), read-out: VDR modulation light-activated (Z): EC50.
Where [3] appears, read: dark‐adapted (E)‐state, read-out: VDR modulation dark (E): EC50.

This note sets out measurements from PMC13360702, “An Agonist/Antagonist Photo‐Switchable Vitamin D Mimetic Enables Bidirectional Optical Control of VDR” (Angewandte Chemie (International Ed. in English), 2026).

Read-outs that look alike come from different tables or passages of the source. Some results are limits rather than exact numbers.

On to `CCC(O)(CC)c1ccc(-c2cc(/N=N/c3ccc(CO)c(CO)c3)ccc2C)c(C)c1` [compound 5], for which the values for the EC50 at VDR (setting [2]) and on VDR (setting [3]) were 920 ± 60 nM and 1000 ± 200 nM, respectively.

Take `CCCc1cc(C(O)(CC)CC)ccc1-c1ccc(/N=N/c2ccc3cc(C(=O)O)ccc3c2)cc1C` [(E)‐10]: the “effect on osteogenesis (ALP activity, von Kossa staining positive area)” value (“effect on osteogenesis” below) with ASC52telo hTERT cells is “promoted osteogenesis”.

With `CCCc1cc(C(O)(CC)CC)ccc1-c1ccc(/N=N/c2ccc(C(=O)O)c(O)c2)cc1C` [compound 8], the concentration giving a half-maximal response (EC50) (as a rule, the concentration giving half of the maximal effect) at VDR (setting [2]) was 1400 ± 200 nM; on VDR (setting [3]), above 10000 nM.

Turning to `CCCc1cc(C(O)(CC)CC)ccc1-c1cc(/N=N/c2ccc(CO)c(CO)c2)ccc1C` [compound 4], the EC50 on VDR (setting [2]) turned out to be 140 ± 300 nM; on VDR (setting [3]) it was 600 ± 200 nM. Also, the “activity difference between the dark‐adapted (E)‐ and the light‐induced (Z)‐isomers” value on VDR (VDR agonism, (E) vs (Z)) is reported as 4 fold.

Regarding `CCCCc1cc(C(O)(CC)CC)ccc1-c1cc(/N=N/c2ccc(CO)c(CO)c2)ccc1C` [compound 6], the EC50 at VDR (setting [2]) was 1100 ± 200 nM; at VDR (setting [3]), 1800 ± 300 nM.

On to `CCCc1cc(C(O)(CC)CC)ccc1-c1cc(/N=N/c2ccc(C(=O)O)c(O)c2)ccc1C` [compound 7], for which the figures for the EC50 at VDR (setting [2]) and on VDR (setting [3]) were 310 ± 40 nM and 500 ± 100 nM, respectively.

As to `CCCc1cc(C(O)(CC)CC)ccc1-c1ccc(/N=N\c2ccc3cc(C(=O)O)ccc3c2)cc1C` [(Z)‐10], the “effect on osteogenesis” value with ASC52telo hTERT cells is “resembled the effects of calcitriol with weaker efficacy”. The “thermal relaxation half‐life” value in data set [1] came out at 29 h.

As to `C=C1/C(=C\C=C2/CCC[C@]3(C)[C@@H]([C@H](C)CCCC(C)(C)O)CC[C@@H]23)C[C@@H](O)C[C@@H]1O` [compound 2, 1,25‐dihydroxyvitamin D, reference compound], in the data set on ASC52telo hTERT cells, the “effect on osteogenesis” value is given as “counteracted bone formation”.

Consider `CCCc1cc(C(O)(CC)CC)ccc1-c1ccc(/N=N/c2ccc3[nH]c(=O)[nH]c3c2)cc1C` [compound 9], for which the “VDR modulation light-activated (Z): activation in words” value on VDR ((Z)‐state, Cell‐Disco (370 nm), 10 μM, inactive = no statistically significant activation at the indicated concentration) is “failed to activate VDR”. On VDR (dark‐adapted (E)‐state, 10 μM, inactive = no statistically significant activation at the indicated concentration), the “VDR modulation dark (E): activation in words” value is “failed to activate VDR”.
